ChEMBL document CHEMBL1201862, “PubChem BioAssay data set” (2004)
Active and inactive are the calls of the source.

What was measured:
H9c2 = assay: cells; type: functional, cell-based; details: Rattus norvegicus, H9c2, Myocardium
cells = type: functional
[1] = molecular target: T1, Corticotropin-releasing factor receptor 2/Corticotropin-releasing factor-binding protein (Homo sapiens, UniProt P24387+Q13324); assay: activators of CRF receptor 2 with binding protein – uHTS hits, confirmation (AID 602473); type: functional; details: read-out: EC50_Mean
T1 sequence (Q13324 whole entry): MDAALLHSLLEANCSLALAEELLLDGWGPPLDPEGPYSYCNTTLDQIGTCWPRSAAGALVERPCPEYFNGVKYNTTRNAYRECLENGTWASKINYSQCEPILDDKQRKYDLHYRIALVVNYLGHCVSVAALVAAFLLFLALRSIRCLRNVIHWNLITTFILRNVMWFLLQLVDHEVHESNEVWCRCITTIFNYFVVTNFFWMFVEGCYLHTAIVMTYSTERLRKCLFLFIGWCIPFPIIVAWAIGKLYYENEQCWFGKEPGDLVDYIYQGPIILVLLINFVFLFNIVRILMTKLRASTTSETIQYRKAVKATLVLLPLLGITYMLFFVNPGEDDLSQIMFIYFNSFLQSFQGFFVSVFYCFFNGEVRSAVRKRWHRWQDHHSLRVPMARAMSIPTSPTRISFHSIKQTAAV
T1 sequence (P24387 whole entry): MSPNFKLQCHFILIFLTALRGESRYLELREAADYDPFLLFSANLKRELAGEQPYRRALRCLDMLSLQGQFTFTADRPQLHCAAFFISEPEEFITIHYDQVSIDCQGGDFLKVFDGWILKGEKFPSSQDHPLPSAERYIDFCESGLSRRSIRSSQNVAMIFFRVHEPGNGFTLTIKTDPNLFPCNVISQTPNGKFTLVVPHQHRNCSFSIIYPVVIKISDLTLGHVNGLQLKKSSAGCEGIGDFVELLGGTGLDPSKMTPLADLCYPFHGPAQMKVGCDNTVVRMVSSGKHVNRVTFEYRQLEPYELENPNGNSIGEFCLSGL

[2] = molecular target: T1, Corticotropin-releasing factor receptor 2/Corticotropin-releasing factor-binding protein; assay: Dose Response confirmation of uHTS hits for small molecule antagonists of the CRF-binding protein and CRF-R2 receptor complex.; type: functional; details: read-out: IC50_Mean
Paired box protein Pax-8 = Paired box protein Pax-8 (Homo sapiens, UniProt Q06710); assay: PAX8 transcriptional activity inhibition in RMG-I – RMG-I cells, luciferase, cherry-pick, dose response (AID 687027); type: functional, cell-based;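 further: luciferase reporter driven by Pax8 target thyroperoxidase promoter measured by SteadyGlo luminescence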
[3] = NIH3T3 cell viability loss – ATP luminescence, mouse fibroblasts, counter-screen, dose response (AID 2010); type: functional, cell-based;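 further: cells exposed to compound for about 90 hours before reading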
[4] = Trypanosoma cruzi growth suppression in host cells – NIH3T3 host cells, beta-gal luminescence, confirmation (AID 2044); type: functional, cell-based;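 further: intracellular parasites grown in NIH/3T3 mouse fibroblasts as host cells; luminescent beta-galactosidase reporter signal from transgenic T. cruzi replicating inside host cells; inhibitors lower the luminescence signal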

Sequence of Paired box protein Pax-8 (Q06710 whole entry): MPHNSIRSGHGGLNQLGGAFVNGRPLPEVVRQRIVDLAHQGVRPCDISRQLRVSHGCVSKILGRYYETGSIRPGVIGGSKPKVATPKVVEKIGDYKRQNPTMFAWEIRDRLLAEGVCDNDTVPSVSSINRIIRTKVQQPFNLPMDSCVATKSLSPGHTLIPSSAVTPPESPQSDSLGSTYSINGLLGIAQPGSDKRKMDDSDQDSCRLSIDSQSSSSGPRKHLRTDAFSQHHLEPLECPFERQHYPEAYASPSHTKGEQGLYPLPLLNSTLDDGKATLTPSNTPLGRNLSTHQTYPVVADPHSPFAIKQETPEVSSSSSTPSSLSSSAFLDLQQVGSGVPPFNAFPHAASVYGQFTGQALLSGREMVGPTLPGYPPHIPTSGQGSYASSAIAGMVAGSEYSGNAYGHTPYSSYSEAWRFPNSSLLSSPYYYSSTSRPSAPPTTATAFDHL

## Cc1ccc(N2CC(C(=O)NCc3nnc(O)c4ccccc34)CC2=O)cc1C (stereo not drawn)
H9c2
  IC50: > 79 µM (inactive)

## O=c1oc2ccccc2c2c1nc(C(F)(F)F)n2-c1ccccc1
cells
  IC50: 11.4 µM (active)

## CC(C)(O)C#Cc1ccc(C(=O)Nc2ccc3c(c2)OCO3)s1
cells
  IC50: 5 µM (active)

## O=C(NCN1CCCCC1)c1cnccn1
[1]
  EC50: > 53 µM (inactive)
[2]
  IC50: > 47.1 µM (inactive)

## Cc1cccc(-n2c(SCC(=O)N3CC(=O)Nc4ccccc43)nc3ccccc3c2=O)c1C
[1]
  EC50: > 53 µM (inactive)
[2]
  IC50: > 47.1 µM (inactive)

## N#Cc1ccc(NC(=O)COC(=O)CSc2nnc(-c3ccc(Cl)cc3)o2)cc1
[1]
  EC50: > 53 µM (inactive)
[2]
  IC50: > 47.1 µM (inactive)

## CCN(CC)C(=O)c1c(C)nc2ccccn12
[1]
  EC50: > 53 µM (inactive)
[2]
  IC50: > 47.1 µM (inactive)

## C[C@@H]1CN([C@H](C)CO)C(=O)c2cc(NC(=O)c3ccccc3)ccc2O[C@@H](C)CCCCO[C@H]1CN(C)Cc1ccc(C(F)(F)F)cc1
Paired box protein Pax-8
  AC50: 3.09 µM (active)

## CN(C)S(=O)(=O)c1ccc(Cl)c(NC(=O)CNC2(C)CCS(=O)(=O)C2)c1 (stereo not drawn)
[1]
  EC50: > 53 µM (inactive)
[2]
  IC50: > 47.1 µM (inactive)

## O=C(C[C@@H]1C/C=C/CC[C@@H](Cc2ccc(F)cc2)C(=O)O[C@@H](c2ccccc2)CNC1=O)NCCO
H9c2
  IC50: 11.4 µM (active)

## CC(C)(C)OC(=O)N1CCCN(C(=O)Nc2cccc(Cl)c2)CC1
[1]
  EC50: > 53 µM (inactive)
[2]
  IC50: > 47.1 µM (inactive)

## CCOC(=O)COc1cc([N+](=O)[O-])cc2cccnc12
cells
  IC50: 46.4 µM (active)

## O=C(CCc1nc(O)c2ccccc2n1)N1CCN(S(=O)(=O)c2ccc(F)cc2)CC1
H9c2
  IC50: > 79 µM (inactive)

## C[C@@H]1CCCCO[C@@H](CN(C)CC2CCCCC2)[C@@H](C)CN([C@@H](C)CO)C(=O)c2cc(NC(=O)Nc3ccc(C(F)(F)F)cc3)ccc2O1
Paired box protein Pax-8
  AC50: 12 µM (active)

## Cc1ccccc1/N=C/c1cc2c(cc1[N+](=O)[O-])OCO2
H9c2
  IC50: > 79 µM (inactive)

## C=CCn1c(SCC(=O)Nc2c(C)cccc2C)nnc1-c1ccncc1
[1]
  EC50: > 53 µM (inactive)
[2]
  IC50: > 47.1 µM (inactive)

## COc1cccc(C(=O)CSc2nnc(-c3cc(OC)c(OC)c(OC)c3)o2)c1
H9c2
  IC50: > 79 µM (inactive)

## CC(C)(C)C(=O)Nc1cccc(-c2nnc(-c3cccc(NC(=O)C(C)(C)C)c3)o2)c1
H9c2
  IC50: > 79 µM (inactive)

## O=C(c1ccco1)N1CCN(C(=O)c2cc(-c3ccncc3)nc3ccc(Br)cc23)CC1
[3]
  EC50: > 60 µM (not active)
[4]
  EC50: 3.83 µM (active)
H9c2
  IC50: 7.04 µM (active)

## CN(C(=O)CCS(=O)(=O)c1ccc2c(c1)oc(=O)n2C)C1CCCCC1
[1]
  EC50: > 53 µM (inactive)
[2]
  IC50: > 47.1 µM (inactive)

## O=C1NC(c2ccc(Cl)c([N+](=O)[O-])c2)Nc2ccccc21 (stereo not drawn)
H9c2
  IC50: 21.9 µM (active)

## O=C(Oc1cccc2c(O)nccc12)c1ccccc1
H9c2
  IC50: > 79 µM (inactive)

## Cc1c(C(=O)NCC2COc3ccccc3O2)oc2ccc(S(=O)(=O)N3CCOCC3)cc12 (stereo not drawn)
H9c2
  IC50: > 79 µM (inactive)

## COc1cccc(COC(=O)CCNC(=O)c2ccc(Cl)cc2)c1OC
cells
  IC50: 25.5 µM (active)

## CCCS(=O)(=O)N1CCC(C(=O)NCCCOC(C)C)CC1
[1]
  EC50: > 53 µM (inactive)
[2]
  IC50: > 47.1 µM (inactive)

## CC(=O)Nc1cccc(NC(=O)CSc2ccc(-c3ccccn3)nn2)c1
H9c2
  IC50: 24.5 µM (active)

## CCC(C)c1ccc(OCCn2ccnc2)cc1 (stereo not drawn)
cells
  IC50: 22.6 µM (active)
